Results published in patent US5688805A, “Tricyclic derivatives, compositions and methods of use” (Schering Corporation, priority 1995, dated 1997).

Key:
[1] = tested on: LPS/Galactosamine-Induced Lethality; assay: In Vivo Study: Inhibition of LPS/Galactosamine-Induced Lethality; set-up: species or system Mice (C57BI/6J males); settings: 25 mg/kg orally or i.p. one hour before LPS (100 ng) and d-galactosamine (8 mg) i.p.; survival at 24 hours
Description: This test procedure is a standard test used to determine activity against septic shock.
3. In Vivo Study: Inhibition of LPS/Galactosamine-Induced Lethality
Mice (C57BI/6J males, 6-8 weeks of age) are dosed with the indicated compound (dissolved in CMC suspension vehicle; compounds are given orally or i.p. one hour before challenge with LPS and d-galactosamine).
Mice are challenged i.p. with a mixture of LPS (from E. coli 0111:B4; 100 ng) and d-galactosamine (8 mg).
Survival is determined 24 hours after challenge. See procedure

[2] = tested on: TNF; assay: In Vivo Study: Inhibition of LPS-Induced Serum TNF; set-up: species or system Mice (C57BI/6J males); settings: Mus musculus, 1.5 h; 25 mg/kg orally or i.p. one hour before LPS (50 μg i.p.); bled 90 min after LPS; serum TNF by ELISA
Description: In addition to the in vitro test described above, the following in vivo test was also performed on several of the compounds of the present invention.
2. In Vivo Study: Inhibition of LPS-Induced Serum TNF
1) Mice (C57BI/6J males, 6-8 weeks of age) are dosed with the indicated compound (dissolved in CMC suspension vehicle; compounds are given orally or i.p. one hour before LPS challenge).
3) Mice are bled 90 min after LPS challenge.
4) Sera are analyzed for TNF content by ELISA as described in J. Immunol.

[3] = tested on: TNF-α; assay: In Vitro Study: Inhibition of LPS-Induced TNF-α Production From the Murine Cell Line WEHI-265; format: cell-based; settings: for inhibition at 10 µM: Mus musculus, WEHI-265 cells, LPS, 20-24 hours
Description: This test procedure is a standard test used to determine anti-TNF-α activity and to evaluate the usefulness of said compounds for counteracting the biological effects of TNF-α.
In Vitro Study: Inhibition of LPS-Induced TNF-α Production From the Murine Cell Line WEHI-265
1) Cells (obtained from cell cultures containing ≤10^6 cells/ml) are suspended at 0.2×10^6 cells/ml in complete medium (RPMI1640, with 10% FCS, 10^-5 M 2-ME, 2 mM glutamine and 10 mM HEPES buffer) and plated in CoStar 24 well plates (1.0 ml/well).
2) Compounds are dissolved in the appropriate vehicle at 400 times the concentration to be tested, and 5 μl of compound is added to the wells.
3) LPS (from E. coli 0111:B4) is diluted to 6 μg/ml and 1.0 ml is added to wells.
4) Plates are incubated 20-24 hours in 37° C. CO2 incubator.
5) Supernatant fluids are collected and analyzed for TNF content as described in J. lmmunol., 142:3884.

| SMILES | # DEAD/TOTAL AT 25 MG/KG [1] | inhibition in vivo at 25 mg/kg [2] | inhibition at 10 µM [3] | anti-TNF-α activity (in words) ([3]; general statement) |
| --- | --- | --- | --- | --- |
| C=CCC1(C2=CCN(C)CC2)c2ccccc2CCc2ccccc21 [Compound IB, 4-[10,11-dihydro-5-(2-propenyl)-5H-dibenzo[a,d]cyclohepten-5-yl]-1-methyl-1,2,5,6-tetrahydropyridine] | 0/8 | 80% | 70% | – |
| c1ccc2c(c1)CCc1ccccc1C2C1CCCNC1 (stereo not drawn) [Compound ID, 3-(10,11-dihydro-5H-dibenzo[a,d]cyclohepten-5-yl)-piperidine acetic acid] | – | – | 51% | – |
| C=CCC1(C2=CCNCC2)c2ccccc2CCc2ccccc21 [Compound IE, 4-[10,11-dihydro-5-(2-propenyl)-5H-dibenzo[a,d]cyclohepten-5-yl]-1,2,5,6-tetrahydro(1H)-pyridine] | 7/8 | – | 61% | – |
| CCCC1(C2=CCN(C)CC2)c2ccccc2CCc2ccccc21 [Compound IF, 4-[10,11-dihydro-5-propyl-5H-dibenzo[a,d]cyclohepten-5-yl]-1-methyl-1,2,5,6-tetrahydropyridine] | 5/8 | 50% | 28% | – |
| C=CCC1(C2=CCN(C(C)=O)CC2)c2ccccc2CCc2ccccc21 [Compound IG, 1-acetyl-4-[10,11-dihydro-5-(2-propenyl)-5H-dibenzo[a,d]cyclohepten-5-yl]-1,2,5,6-tetrahydro-1H-pyridine] | – | – | 27% | – |
| CCCC1(C2CCN(C)CC2)c2ccccc2CCc2ccccc21 [Compound IJ, 4-[10,11-dihydro-5-propyl-5H-dibenzo[a,d]cyclohepten-5-yl]-1-methylpiperidine] | – | – | 55% | – |
| CN1CC=C(C2c3ccccc3CCc3ccccc32)CC1 [Compound IL, 4-(10,11-dihydro-5H-dibenzo[a,d]cyclohepten-5-yl)-1-methyl-1,2,5,6-tetrahydropyridine] | 1/9 | 58% | 23% | – |
| C=CCC1(C2=CC[N+](C)(C)CC2)c2ccccc2CCc2ccccc21.[I-] [Compound IM, 4-[10,11-dihydro-5-(2-propenyl)-5H-dibenzo[a,d]cyclohepten-5-yl]-1,1-dimethyl-1,2,5,6-tetrahydropyridinium iodide] | 2/11 | 27% | 8% | – |
| C=CCC1(C2=CCN(Cc3ccccc3)CC2)c2ccccc2CCc2ccccc21 [Compound IN, 4-[10,11-dihydro-5-(2-propenyl)-5H-dibenzo[a,d]cyclohepten-5-yl]-1-(phenylmethyl)-1,2,5,6-tetrahydro-1H-pyridine] | 10/10 | 42% | 25% | – |
| C=CCC1(C2=CCN(C(C)C)CC2)c2ccccc2CCc2ccccc21 [Compound IP] | 6/10 | 28% | 62% | – |
| CN1CCCC(C2c3ccccc3CCc3ccccc32)C1 (stereo not drawn) [Compound IR, 3-(10,11-dihydro-5H-dibenzo[a,d]cyclohepten-5-yl)-1-methyl-piperidine] | – | – | 60% | – |
| C[N+]1(C)CC=C(C2c3ccccc3CCc3ccccc32)CC1 [Compound IY, 4-(10,11-dihydro-5H-dibenzo[a,d]cyclohepten-5-yl)-1,1-dimethyl-1,2,5,6-tetrahydropyridinium iodide] | – | – | 12% | – |
| CN1CCC(C2c3ccccc3CCc3ccccc32)CC1 [Compound K, reference compound] | 0/10 | 82% | 17% | has anti-TNF-α activity |
| C=CCC1(C2=CCN(C)CC2)c2ccccc2CCc2ccc(Cl)cc21 (stereo not drawn) [IA] | – | – | 80% | – |
| C=CCC1(C2=CCN(C(=O)OCC)CC2)c2ccccc2CCc2ccccc21 [IC] | 4/8 | – | 20% | – |
| C=CCC1(C2=CCN(C)CC2)c2ccccc2C=Cc2ccccc21 [IH] | 4/9 | 8% | 6% | – |
| CN1CC=C(C2(Cc3ccccc3)c3ccccc3CCc3ccccc32)CC1 [IK] | 5/9 | 45% | 61% | – |
| CC(C)=CCC1(C2=CCN(C)CC2)c2ccccc2CCc2ccccc21 [IQ] | 4/10 | 28% | 62% | – |
| CN1CC=C(C2(C)c3ccccc3CCc3ccccc32)CC1 [IS] | – | 26% | 61% | – |
| CC1(C2=CC[N+](C)(C)CC2)c2ccccc2CCc2ccccc21 [IT] | – | 3% | 9% | – |
| C=CCC1(C2=CCN(C)CC2)c2ccccc2CCc2cccnc21 (stereo not drawn) [IX] | 9/9 | 56% | 38% | – |
